Results taken from paper PMC5679017 (Journal of medicinal chemistry, 2016).

Key:
mice [1] = assay: Cannula placement validation with hPYY, food intake; assay type: in vivo, mouse; details: 2.5 μg human PYY3-36, validated cannulated mice (saline: 0.42 ±0.07 g)
mice [2] = details: 2 nmol dose; 3, 4, 5, 6, 16 and 24 hours after administration; cited from earlier work
melanocortin receptors = details: cited from earlier work

hPYY: human PYY3-36 (Bachem) used to verify cannula placement
food eaten four hours after administration (mice [1]): 1.79 ± 0.13 g

CC(=O)N[C@@H](Cc1c[nH]cn1)C(=O)N[C@H](Cc1ccccc1)C(=O)N[C@@H](CCCNC(=N)N)C(=O)N[C@@H](Cc1c[nH]c2ccccc12)C(N)=O [Compound 1, Ac-His-DPhe-Arg-Trp-NH2]
food intake after ICV administration (previous study) (mice [2]): decrease food intake | binding affinity at the melanocortin receptors (reported) (melanocortin receptors): high nanomolar to low micromolar
